≈ marks a conversion by molar mass, not a printed value. Where two headings read alike, the source gives them in different places. *1 amine or outer side, *2 acyl side, *3 side chain or, on linkers, in order; H or OH if unused. Where a SMILES comes first, the peptide text is derived from it. Bridges are numbered along the chain shown (N, C = ends). [ ]: non-standard residue; d: D form. The star is where a group is joined. ξ: configuration not given here. X6 = CCc1c2c(nc3ccc(OC(=O)OCc4ccc(NC(=O)[C@H](CCCNC(N)=O)NC(=O)[C@@H](NC(=O)COCC(=O)*)C(C)C)cc4)cc13)-c1cc3c(c(=O)n1C2)COC(=O)[C@]3(O)CC; X3 = CCc1c2c(nc3ccc(O)cc13)-c1cc3c(c(=O)n1C2)COC(=O)[C@@]3(CC)OC(=O)CCCCn1cc(CCCC(=O)NCCCOCCOCCOCCSCN*)nn1; X2 = CCc1c2c(nc3ccc(O)cc13)-c1cc3c(c(=O)n1C2)COC(=O)[C@@]3(CC)OC(=O)CCC(=O)*; X7 = CCc1c2c(nc3ccc(OC(=O)*)cc13)-c1cc3c(c(=O)n1C2)COC(=O)[C@]3(O)CC; X4 = CC(O)CC(N[*:1])C(=O)[*:2]; Suc = O=C(CCC(=O)[*:2])[*:1]; Nva = CCC[C@H](N)C(=O)O; ξE = NC(CCC(=O)O)C(=O)O; Dap = NC[C@H](N)C(=O)O; ξN = NC(=O)CC(N)C(=O)O; ξK = NCCCCC(N)C(=O)O; ξT = CC(O)C(N)C(=O)O; ξDap = NCC(N)C(=O)O; ξP = O=C(O)C1CCCN1; ξA = CC(N)C(=O)O
How the values were obtained:
[1] = Turbidimetric aqueous solubility; assay type: physicochemical; details: 37 °C, pH 7.4, aqueous buffer, kinetic from dmso stock, Turbidity aqueous solubility, Estimated precipitation range
Protocol: Each test compound concentration was then further diluted 1 in 100 in buffer (0.01 M phosphate buffered saline pH 7.4) so that the final DMSO concentration was 1% and the final test compound concentrations were 1, 3, 10, 30 and 100 μM. The experiment was performed at 37° C. and each concentration was incubated in 7 replicate wells. The plates were incubated for 2 hr at 37° C. before the absorbance was measured at 620 nm.

[2] = Evaluation of solubility in water; assay type: physicochemical; details: at 1 mg/mL
Protocol: 25 mg of SN38-linker A-MiniAp4 were dissolved in H2O, showing a completely transparent solution. This means that SN38-linker A-MiniAp4 has a solubility in water higher than 5 mg/mL, more than 400-fold the solubility in water described for SN38 (Mol. Pharmaceutics, 2016, 13, 379-390).

[3] = tested on: pediatric high-grade glioma HSJD-GBM-001; assay: cells; assay type: cell-based; details: MTS, 72 h incubation, Example 11, Table 4, read-out: IC50 values of compounds
Excerpt: (§1) Cancer cell lines were obtained from the repository maintained at Hospital Sant Joan de Deu (Barcelona, Spain). Cancer cell lines used in these experiment included cancer types of adult glioma (U373 and U87 cell lines), pediatric gliomas including diffuse intrinsic pontine glioma (HSJD-DIPG-007, HSJD-DIPG-011), and pediatric high-grade glioma (HSJD-GBM-001), retinoblastoma (HSJD-RBT-5, HSJD-RBT-7 and HSJD-RBT-14), Ewing sarcoma (A673), rhabdomyosarcoma (Rd and RH4) and neuroblastoma (LAN-1 and SK-N-JD cell lines and HSJD-NB-004, HSJD-NB-005 and HSJD-NB-016 patient-derived cell models). Briefly, between 3000 and 30,000 cancer cells were cultured in 96 well plates and 24 h later the cells were exposed to compound SN38-linker A-MiniAp4 (Ia) (concentration range 1-0.00000001 μM), SN38 (concentration range 1-0.00000001 μM), or irinotecan (concentration range 100-0,000001 μM). To add the drugs to the cells in culture, SN38-linker A-MiniAp4 (Ia) and irinotecan were prepared in culture medium from stock solutions at concentration 1 mg/mL in water. SN38 was prepared in culture medium from a stock solution at concentration 1 mg/mL in DMSO. The tetrazolium compound [3-(4,5-dimethylthiazol-2-yl)-5-(3-carboxymethoxyphenyl)-2-(4-sulfophenyl)-2H-tetrazolium] (MTS assay; Promega, Fitchburg, WI) was used to determine cell viability after 72 h incubation with the drugs. The concentrations of drug required to cause a reduction of 50% in cell proliferation (IC50 and 95% confidence intervals) were calculated with Graphpad Prism 8 software (La Jolla, CA). Activity curves were built for adult glioma cell lines U87 (FIG. 1) and U373 (FIG. 2), pediatric gliomas including DIPG models HSJD-DIPG-007 (FIG. 3) and HSJD-DIPG-011 (FIG. 4), and pediatric high-grade glioma model HSJD-GBM-001 (FIG. 5), retinoblastoma models HSJD-RBT-5 (FIG. 6), HSJD-RBT-7 (FIG. 7) and HSJD-RBT-14 (FIG. 8), Ewing sarcoma cell line A673 (FIG. 9), rhabdomyosarcoma cell lines Rd (FIG. 10) and RH4 (FIG. 11), neuroblastoma cell lines LAN-1 (FIG. 12) and SK-N-JD (FIG. 13) and neuroblastoma patient-derived cell models HSJD-NB-004 (FIG. 14), HSJD-NB-005 (FIG. 15) and HSJD-NB-016 (FIG. 16). The established IC50 values are in Table 3.
The present inventors compared the activity of the new compound SN38 conjugated with MiniAp4 (SN38-linkerA-MiniAp4, example 7 also named G2B-001) and with SN38-linker B-THRre (comparative example 2). Original compound SN38 was used as reference. Cancer cell lines used in these experiments were pediatric gliomas including diffuse intrinsic pontine glioma HSJD-DIPG-007, and pediatric high-grade glioma HSJD-GBM-001. Briefly, 3000 cancer cells were cultured in 96 well plates and 24 h later the cells were exposed to compound compound (Ia) (concentration range 1-0.00000001 μM), SN38-Linker B-THRre (concentration range 1-0.00000001 μM), and SN38 (concentration range 1-0.00000001 μM). To add the drugs to the cells in culture, SN38-Linker A-MiniAp4 (Ia) and SN38-Linker B-THRre were prepared in culture medium from stock solutions at concentration 1 mg/mL in water. SN38 was prepared in culture medium from a stock solution at concentration 1 mg/mL in DMSO. The MTS assay was used to determine cell viability after 72 h incubation with the drugs. The concentrations of drug required to cause a reduction of 50% in cell proliferation (IC50 and 95% confidence intervals) were calculated with Graphpad Prism 8 software (La Jolla, CA). Activity curves were built for cells HSJD-DIPG-007 (FIG. 20) and HSJD-GBM-001 (FIG. 21). The established IC50 values are in Table 4.
Cancer cell lines used in these experiments were pediatric gliomas including diffuse intrinsic pontine glioma HSJD-DIPG-007, and pediatric high-grade glioma HSJD-GBM-001. Briefly, 3000 cancer cells were cultured in 96 well plates and 24 h later the cells were exposed to compounds (Ia), comparative example 1 and comparative example 2 (concentration range 1-0.001 μM for each of them). […]

[4] = tested on: diffuse intrinsic pontine glioma HSJD-DIPG-007; assay: cells; details: HSJD-DIPG-007, MTS, 72 h incubation
Excerpt: as §1, with “Briefly, between 3000 and 30,000 cancer cells were cultured in 96 well plates and 24 h later the cells were exposed to compound SN38-linker A-MiniAp4 (Ia) (concentration range 1-0.00000001 μM), SN38 (concentration range 1-0.00000001 μM), or irinotecan (concentration range 100-0,000001 μM).” left out, “The tetrazolium compound [3-(4,5-dimethylthiazol-2-yl)-5-(3-carboxymethoxyphenyl)-2-(4-sulfophenyl)-2H-tetrazolium] (MTS assay; Promega, Fitchburg, WI) was used to determine cell viability after 72 h incubation with the drugs. The concentrations of drug required to cause a reduction of 50% in cell proliferation (IC50 and 95% confidence intervals) were calculated with Graphpad Prism 8 software (La Jolla, CA).” left out
Cancer cell lines used in these experiments were pediatric gliomas including diffuse intrinsic pontine glioma HSJD-DIPG-007, and pediatric high-grade glioma HSJD-GBM-001. […] To add the drugs to the cells in culture, SN38-Linker A-MiniAp4 (Ia) and SN38-Linker B-THRre were prepared in culture medium from stock solutions at concentration 1 mg/mL in water. SN38 was prepared in culture medium from a stock solution at concentration 1 mg/mL in DMSO. […] Activity curves were built for cells HSJD-DIPG-007 (FIG. 20) and HSJD-GBM-001 (FIG. 21).
Cancer cell lines used in these experiments were pediatric gliomas including diffuse intrinsic pontine glioma HSJD-DIPG-007, and pediatric high-grade glioma HSJD-GBM-001. […] All compounds were prepared in culture medium from stock solutions at concentration 1 mg/mL in water. […] Activity curves were built for cells HSJD-DIPG-007 (FIG. 22) and HSJD-GBM-001 (FIG. 23).
Cancer cell line used in these experiment was HSJD-DIPG-007.

[5] = Stability in human plasma at 37° C. in vitro; assay type: in vitro ADME
Protocol: To assess the stability of the SN38-linker A-MiniAp4 (Ia) (example 7) in human, mouse, dog and rat plasma at 37° C., the compound was prepared at 200 μM in plasma samples in triplicates at each timepoint (0 h, 1 h, 4 h, 8 h and 24 h) for each species. Once the incubation was finalised, plasma proteins were immediately precipitated by adding chilly methanol (ratio 4:1, methanol:plasma) and tubes were shacked for few seconds (vortex). Samples were centrifuged at 3,000 rpm for 30 minutes at 4° C., supernatants were collected, transferred to the injection plate and injected to LC-MS system.
Compound recovery was determined by comparing the analyte response in a biological sample that is spiked with the analyte and processed, with the response in a methanol sample that is spiked with the analyte and processed.
Plasma stability assay was performed using blank plasma from untreated volunteers/animals. K2-EDTA was used as anticoagulant. Human blank plasma used was obtained from Hospital Sant Pau, mouse blank plasma used was obtained from Janvier, dog blank plasma used was obtained from Isoquimen and rat blank plasma used were obtained from Draconis Pharma.
To assess the stability of the G2B-001 lineal (Ib) (example 16) in human plasma at 37° C., the compound was prepared at 200 µM in plasma samples in triplicates at each timepoint (0 h, 0.5 h, 1 h, 2 h, 4 h, 8 h and 24 h). Once the incubation was finalised, plasma proteins were immediately precipitated by adding chilly methanol (ratio 4:1, methanol:plasma) and tubes were shacked for few seconds (vortex). Samples were centrifuged at 3,000 rpm for 30 minutes at 4° C., supernatants were collected, transferred to the injection plate and injected to LC-MS system. Compound recovery was determined by comparing the analyte response in a biological sample that is spiked with the analyte and processed, with the response in a methanol sample that is spiked with the analyte and processed.
Plasma stability assay was performed using blank plasma from untreated volunteers. K2-EDTA was used as anticoagulant. Human blank plasma used was obtained from Hospital Sant Pau.

## COC(=O)C1=C(C)NC(C)=C(C(=O)OCCN(C)Cc2ccccc2)C1c1cccc([N+](=O)[O-])c1 (centres unmarked) [Nicardipine, reference compound]
[1]; Calculated mid-range
  solubility at 2 h: 11.5 µM (≈ 5.51 µg/mL)
[1]; Lower bond
  solubility at 2 h: 3 µM (≈ 1.44 µg/mL)
[1]; Upper bond
  solubility at 2 h: 20 µM (≈ 9.59 µg/mL)

## CCc1c2c(nc3ccc(OC(=O)OCc4ccc(NC(=O)[C@H](CCCNC(N)=O)NC(=O)[C@@H](NC(=O)COCC(=O)N[C@H]5CNC(=O)C[C@@H](C(N)=O)NC(=O)[C@H](CC(C)C)NC(=O)[C@H](C)NC(=O)[C@H]([C@@H](C)O)NC(=O)[C@H](CCC(=O)O)NC(=O)[C@@H]6CCCN6C(=O)[C@H](C)NC(=O)[C@H](CCCCN)NC5=O)C(C)C)cc4)cc13)-c1cc3c(c(=O)n1C2)COC(=O)[C@]3(O)CC [G2B-004 (Id)] (X6-[Dap]KAPETALD-NH2; lactam 1-9)
[2]
  solubility in water: good solubility

## CCC[C@H](NC(=O)CNC(=O)Oc1ccc2nc3c(c(CC)c2c1)Cn1c-3cc2c(c1=O)COC(=O)[C@]2(O)CC)C(=O)N1CCC[C@H]1C(=O)NCC(=O)N[C@H]1CNC(=O)C[C@@H](C(N)=O)NC(=O)[C@H](CC(C)C)NC(=O)[C@H](C)NC(=O)[C@H]([C@@H](C)O)NC(=O)[C@H](CCC(=O)O)NC(=O)[C@@H]2CCCN2C(=O)[C@H](C)NC(=O)[C@H](CCCCN)NC1=O [G2B-005 (Ie)] (X7-G[Nva]PG[Dap]KAPETALD-NH2; lactam 5-13)
[2]
  solubility in water: good solubility

## CCc1c2c(nc3ccc(O)cc13)-c1cc3c(c(=O)n1C2)COC(=O)[C@@]3(CC)OC(=O)CCC(=O)N1CCC[C@@H]1C(=O)N[C@H](Cc1c[nH]c2ccccc12)C(=O)N[C@@H](C(=O)N1CCC[C@@H]1C(=O)N[C@H](CO)C(=O)N[C@H](Cc1c[nH]c2ccccc12)C(=O)N[C@H](CCSC)C(=O)N1CCC[C@@H]1C(=O)N1CCC[C@@H]1C(=O)N[C@H](CCCNC(=N)N)C(=O)N[C@H](Cc1c[nH]cn1)C(=O)N[C@@H](C(N)=O)[C@H](C)O)C(C)C [Comparative Example 2, reference compound] (X2-[dP][dW][dV][dP][dS][dW][dM][dP][dP][dR][dH][dT]-NH2; N-terminus and C-terminus assumed)
[3]
  IC50: 60.6 nM
[4]; read-out: IC50 values of compounds, Example 11, Table 4
  IC50: 104 nM

## CCc1c2c(nc3ccc(O)cc13)-c1cc3c(c(=O)n1C2)COC(=O)[C@@]3(CC)OC(=O)CCCCn1cc(CCCC(=O)NCCCOCCOCCOCCSCNC(=O)CCC(=O)NC(CN)C(=O)NC(CCCCN)C(=O)NC(C)C(=O)N2CCCC2C(=O)NC(CCC(=O)O)C(=O)NC(C(=O)NC(C)C(=O)NC(CC(C)O)C(=O)NC(CC(N)=O)C(N)=O)C(C)O)nn1 (some centres unmarked) [G2B-001 lineal (Ib)] ({X3-Suc}-[ξDap][ξK][ξA][ξP][ξE][ξT][ξA][X4][ξN]-NH2)
[5]
  half-life at 200 μM: > 1440 min
[5]; 24 h, read-out: % Recovery after 24 h in human plasma
  recovery at 24 h, 200 μM: 69.9%
[4]; read-out: IC50 values, Example 25, Table 8
  IC50: 36.8 nM
[2]
  solubility in water: good solubility
